From patent US11661426B2, “Imidazole-containing inhibitors of ALK2 kinase” (BioCryst Pharmaceuticals, Inc., priority 2017, dated 2023)
pIC50: −log10 of the molar value.

Biological target: ALK2 (Homo sapiens (Human), UniProt Q04771)
Assay: ALK2 inhibition, LanthaScreen Eu Kinase Binding Assay (ThermoFisher Scientific / Life Technologies)
Settings: read-out: Measured Ki (IC50) Value for Compounds: IC50
Protocol: Biochemical assays to measure the inhibitory effects of the compounds were performed by ThermoFisher Scientific (Life Technologies). ALK2 inhibition was tested using LanthaScreen™ Eu Kinase Binding Assay screening protocol.

ALK2, sequence (Q04771 21-509): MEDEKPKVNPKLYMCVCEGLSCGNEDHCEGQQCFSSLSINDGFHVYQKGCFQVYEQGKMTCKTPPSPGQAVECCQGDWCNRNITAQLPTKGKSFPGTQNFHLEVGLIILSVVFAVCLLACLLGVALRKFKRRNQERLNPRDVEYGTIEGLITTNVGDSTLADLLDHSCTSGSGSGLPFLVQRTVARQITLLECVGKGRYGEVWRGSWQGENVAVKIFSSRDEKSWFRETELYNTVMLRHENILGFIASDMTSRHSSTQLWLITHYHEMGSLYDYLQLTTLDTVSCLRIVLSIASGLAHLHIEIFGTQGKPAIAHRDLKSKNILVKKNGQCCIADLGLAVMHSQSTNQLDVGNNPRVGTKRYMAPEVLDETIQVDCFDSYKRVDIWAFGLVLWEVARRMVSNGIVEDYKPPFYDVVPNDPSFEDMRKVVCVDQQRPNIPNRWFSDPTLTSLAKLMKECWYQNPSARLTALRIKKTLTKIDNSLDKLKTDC

pIC50	Structure (SMILES)
> 7.00	COc1cc(-n2cnc(Nc3nc(N4CCC[C@H]4C(N)=O)nc4c3CNC4)c2)cc(OC)c1OC [Compound 360c, (S)-1-(4-(1-(3,4,5-trimethoxyphenyl)-1H-imidazol-4-ylamino)-6,7-dihydro-5H-pyrrolo[3,4-d]pyrimidin-2-yl)pyrrolidine-2-carboxamide]
6.00 to 7.00	COc1cc(-n2cnc(Nc3cc(C(=O)O)cc4ccoc34)c2)cc(OC)c1OC [Compound 411c, 7-((1-(3,4,5-trimethoxyphenyl)-1H-imidazol-4-yl)amino)benzofuran-5-carboxylic acid]
> 7.00	COc1cc(-n2cnc(Nc3nc(N4CCC[C@H]4CO)c4c(C)n[nH]c4n3)c2)cc(OC)c1OC [Compound 402c, (S)-(1-(3-methyl-6-((1-(3,4,5-trimethoxyphenyl)-1H-imidazol-4-yl)amino)-1H-pyrazolo[3,4-d]pyrimidin-4-yl)pyrrolidin-2-yl)methanol]
6.00 to 7.00	c1ccc(C2CCCN2c2nc(Nc3cn(C4CCCCC4)cn3)c3cccn3n2)nc1 (centres unmarked) [Compound 29a, N-(1-cyclohexyl-1H-imidazol-4-yl)-2-(2-(pyridin-2-yl)pyrrolidin-1-yl)pyrrolo[2,1-f][1,2,4]triazin-4-amine]
> 7.00	COc1cc(-n2cnc(Nc3nc(N4CCC[C@H]4CO)nc4[nH]ccc34)c2)cc(OC)c1OC [Compound 141d, (S)-(1-(4-((1-(3,4,5-trimethoxyphenyl)-1H-imidazol-4-yl)amino)-7H-pyrrolo[2,3-d]pyrimidin-2-yl)pyrrolidin-2-yl)methanol]
< 6.00	COc1cc(-n2cnc(Nc3nc(N4CCC[C@H]4CO)c4cccn4n3)c2)ccc1C#N [Compound 258d, (S)-4-(4-((4-(2-(hydroxymethyl)pyrrolidin-1-yl)pyrrolo[2,1-f][1,2,4]triazin-2-yl)amino)-1H-imidazol-1-yl)-2-methoxybenzonitrile]
6.00 to 7.00	COc1cc(-n2cnc(Nc3nc(N4CCCC4)c4ncsc4n3)c2)cc(OC)c1OC [Compound 233b, 7-(pyrrolidin-1-yl)-N-(1-(3,4,5-trimethoxyphenyl)-1H-imidazol-4-yl)thiazolo[5,4-d]pyrimidin-5-amine]
> 7.00	OC[C@@H]1CCCN1c1nc(Nc2cn(-c3ccccc3)cn2)c2ccccc2n1 [Compound 32a, (S)-(1-(4-((1-phenyl-1H-imidazol-4-yl)amino)quinazolin-2-yl)pyrrolidin-2-yl)methanol]
> 7.00	COc1cc(-n2cnc(Nc3nc(N4CCC[C@H]4C(N)=O)nn4c(CN5CCCCC5)ccc34)c2)cc(OC)c1OC [Compound 117a, (S)-1-(7-(piperidin-1-ylmethyl)-4-((1-(3,4,5-trimethoxyphenyl)-1H-imidazol-4-yl)amino)pyrrolo[2,1-f][1,2,4]triazin-2-yl)pyrrolidine-2-carboxamide]
< 6.00	COc1cc(-n2cnc(Nc3nc(N4CCC[C@H]4CO)c4cccn4n3)c2)ccc1Cl [Compound 250d, (S)-(1-(2-((1-(4-chloro-3-methoxyphenyl)-1H-imidazol-4-yl)amino)pyrrolo[2,1-f][1,2,4]triazin-4-yl)pyrrolidin-2-yl)methanol]
> 7.00	CC(=O)c1cc(-n2cnc(Nc3nc(N4CCC[C@H]4CO)nn4cccc34)c2)ccc1O [Compound 123c, (S)-1-(2-hydroxy-5-(4-((2-(2-(hydroxymethyl)pyrrolidin-1-yl)pyrrolo[2,1-f][1,2,4]triazin-4-yl)amino)-1H-imidazol-1-yl)phenyl)ethanone]
> 7.00	COc1cc(-n2cnc(Nc3nc(N4CCC[C@@H]4CO)c4cc[nH]c4n3)c2)cc(OC)c1OC [Compound 307c, (R)-(1-(2-((1-(3,4,5-trimethoxyphenyl)-1H-imidazol-4-yl)amino)-7H-pyrrolo[2,3-d]pyrimidin-4-yl)pyrrolidin-2-yl)methanol]
> 7.00	COc1cc(-n2cnc(Nc3nc(N4CCC[C@H]4CO)nc4cccnc34)c2)cc(OC)c1OC [Compound 140c, (S)-(1-(4-((1-(3,4,5-trimethoxyphenyl)-1H-imidazol-4-yl)amino)pyrido[3,2-d]pyrimidin-2-yl)pyrrolidin-2-yl)methanol]
> 7.00	CC(C)(C)CC(=O)N1CCN(c2nc(Nc3cn(-c4ccccc4)cn3)c3ccsc3n2)CC1 [Compound 61b, 3,3-dimethyl-1-(4-(4-((1-phenyl-1H-imidazol-4-yl)amino)thieno[2,3-d]pyrimidin-2-yl)piperazin-1-yl)butan-1-one]
> 7.00	COc1cc(-n2cnc(Nc3nc(N4CC[C@@H](N(C)C)C4)nc4ccoc34)c2)cc(OC)c1OC [Compound 251a, (R)-2-(3-(dimethylamino)pyrrolidin-1-yl)-N-(1-(3,4,5-trimethoxyphenyl)-1H-imidazol-4-yl)furo[3,2-d]pyrimidin-4-amine]
< 6.00	Cn1cnc(Nc2nc(Cl)nn3cccc23)c1 [Compound 4b, 2-chloro-N-(1-methyl-1H-imidazol-4-yl)pyrrolo[2,1-f][1,2,4]triazin-4-amine]
> 7.00	COc1cc(-n2cnc(Nc3nc4c(c(N5CCC[C@H]5CO)n3)CNC4)c2)cc(OC)c1OC [Compound 359d, (S)-(1-(2-(1-(3,4,5-trimethoxyphenyl)-1H-imidazol-4-ylamino)-6,7-dihydro-5H-pyrrolo[3,4-d]pyrimidin-4-yl)pyrrolidin-2-yl)methanol]
> 7.00	COc1cc(-n2cnc(Nc3nc4c(c(N5CCC[C@H]5CO)n3)CCN(Cc3cccc(C#N)c3)C4)c2)cc(OC)c1OC [Compound 220a, (S)-3-((4-(2-(hydroxymethyl)pyrrolidin-1-yl)-2-((1-(3,4,5-trimethoxyphenyl)-1H-imidazol-4-yl)amino)-5,6-dihydropyrido[3,4-d]pyrimidin-7(8H)-yl)methyl)benzonitrile]
> 7.00	COc1cc(-n2cnc(Nc3nc(N4CCC[C@@H]4CO)c4ccc(OC(C)C)cc4n3)c2)cc(OC)c1OC [Compound 278b, (R)-(1-(7-isopropoxy-2-((1-(3,4,5-trimethoxyphenyl)-1H-imidazol-4-yl)amino)quinazolin-4-yl)pyrrolidin-2-yl)methanol]
> 7.00	COc1cc(-n2cnc(Nc3nc4c(c(N5CCC[C@@H]5CO)n3)CCCC4)c2)cc(OC)c1OC [Compound 264b, (R)-(1-(2-((1-(3,4,5-trimethoxyphenyl)-1H-imidazol-4-yl)amino)-5,6,7,8-tetrahydroquinazolin-4-yl)pyrrolidin-2-yl)methanol]
> 7.00	COc1cc(-n2cnc(Nc3nc(N4CCC[C@H]4C(N)=O)nc4ccoc34)c2)cc(OC)c1OC [Compound 190a, (S)-1-(4-((1-(3,4,5-trimethoxyphenyl)-1H-imidazol-4-yl)amino)furo[3,2-d]pyrimidin-2-yl)pyrrolidine-2-carboxamide]
> 7.00	COc1cc(-n2cnc(Nc3nc(N4CCC[C@H]4CO)nc4cccc(F)c34)c2)cc(OC)c1OC [Compound 341a, (S)-(1-(5-fluoro-4-((1-(3,4,5-trimethoxyphenyl)-1H-imidazol-4-yl)amino)quinazolin-2-yl)pyrrolidin-2-yl)methanol]
> 7.00	COc1cc(-n2cnc(Nc3nc(N4CCC[C@H]4CO)c4ccc(-c5cccc(F)c5)cc4n3)c2)cc(OC)c1OC [Compound 362b, (S)-(1-(7-(3-fluorophenyl)-2-((1-(3,4,5-trimethoxyphenyl)-1H-imidazol-4-yl)amino)quinazolin-4-yl)pyrrolidin-2-yl)methanol]
